From US20210069295A1, “GALECTINS CONTROL MTOR IN RESPONSE TO ENDOMEMBRANE DAMAGE AND PROVIDE A MECHANISM AND TARGET FOR THE TREATMENT OF AUTOPHAGY-RELATED DISEASES” (STC. UNM, priority 2017, published 2021)
Peptide text beside a SMILES is read from it.

Columns and labels:
[1] = test system: AMPK; assay: AMPK activation by immunoblotting of phosphorylated AMPKα, ACC and ULK1 in HEK293A cells; assay type: cell-based
[2] = test system: LC3; assay: Autophagy induction (LC3-II levels and LC3 puncta) in HEK293T cells; assay type: cell-based; conditions: SLC38A9 knockout and wild type HEK293T, 100 μM GPN
Protocol: (A) Analysis of mTOR activity and autophagy induction in HEK293T cells (WT, wild type) and SLC38A9 knockout (SLC38A9 KO) HEK293T derivatives treated with 100 μM GPN in full medium for the indicated time points. mTOR activity was monitored by immunoblotting analysis of S6K1 phosphorylation at T389 (p-T389). Autophagy induction was monitored by immunoblotting analysis of LC3-II. (B) Analysis of autophagy induction in SLC38A9 KO cells treated with GPN. WT and SLC38A9-KO (SLCKO) HEK293T cells were treated with 100 μM GPN in full medium for 30 min, and LC3 puncta were quantified by HC. […] Data, means±SEM, n≥3 independent experiments (500 primary objects counted per well; ≥ 5 wells/sample per each experiment), **p<0.01, ANOVA. […] WT and SLC38A9 KO HEK293T cells were treated with 100 μM GPN for 1 h followed by 1 h washout in full medium. mTOR activity was monitored by immunoblotting analysis of S6K1 p-T389 and ULK1 p-S757 phosphorylation. Autophagy induction was monitored by immunoblotting analysis of LC3-II. […] Control and FLAG-SLC38A9 overexpressing HEK293T cells were treated with 100 μM GPN in full medium for 30 min, and LC3 puncta were quantified by HC. […] Data, means±SEM, n≥3 independent experiments (500 primary objects counted per well; ≥5 wells/sample per each experiment), **p<0.01, ANOVA. […]

[3] = test system: Gal8; assay: Immunoprecipitation of endogenous Gal8 complexes in THP-1 cells; assay type: cell-based; conditions: 100 μM GPN 1 h
Protocol: (§1) (A) Analysis of the puncta formation of galectins in response to GPN. HeLa cells overexpressing YFP-fused with the indicated galectins were treated with 100 μM GPN or without (Ctrl) in full medium for 1 h and galectin puncta were quantified by HC. […] White masks, algorithm defined cell boundaries (primary objects); green masks, computer-identified galectins puncta (target objects). Data, means±SEM, n≥3 independent experiments (500 primary objects counted per well; ≥5 wells/sample per each experiment); *p<0.05, **p<0.01, † p≥0.05, ANOVA. (B) Immunoprecipitation analysis of the interactions between galectins and mTOR or RagA GTPase. HEK293T cells overexpressing FLAG-tagged galectins were subjected to anti-FLAG immunoprecipitation followed by immunoblotting for endogenous mTOR or RagA. (C) Immunoprecipitation analysis of interactions between Gal8 and mTOR protein complexes in response to GPN treatment. THP-1 cells not treated or treated with 100 μM GPN in full medium for 1 h were subjected to immunoprecipitation with anti-Gal8 antibody, followed by immunoblotting for endogenous RagA, p14, mTOR or Raptor. (D) Analysis of the proximity of Gal8 to mTOR and other proteins in mTOR complexes in response to GPN. Biotinylated proteins from HEK293T cell expressing APEX2-vector or APEX2-Gal8, after GPN and biotin phenol (BP) treatment were affinity-enriched by binding to streptavidin-beads, and samples were analyzed by immunoblotting analysis for endogenous RagA, p14, mTOR or Raptor. Data, means±SEM, (n=3), **p<0.01, ANOVA. (E) Immunoprecipitation analysis of the interactions between Gal8 and RagA GTPase and its mutants. Lysates of HEK293T cells overexpressing FLAG-Gal8 and HA-tagged RagA proteins (RagAWT, RagAT21L or RagAQ66L) were subjected to anti-FLAG immunoprecipitation, followed by immunoblotting for HA-tagged RagA proteins. (F) Immunoprecipitation analysis of the interactions between Gal8 and RagC GTPase and its mutants. […]

[4] = test system: mTOR and RagA; assay: Co-IP of FLAG-tagged galectins with endogenous mTOR or RagA in HEK293T cells; assay type: binding; conditions: HEK293T overexpressing FLAG-tagged galectins
Protocol: as §1, with “(D) Analysis of the proximity of Gal8 to mTOR and other proteins in mTOR complexes in response to GPN.” left out, “Raptor.” for “Raptor. Data, means±SEM, (n=3), **p<0.01, ANOVA. (E) Immunoprecipitation analysis of the interactions between Gal8 and RagA GTPase and its mutants. Lysates of HEK293T cells overexpressing FLAG-Gal8 and HA-tagged RagA proteins (RagAWT, RagAT21L or RagAQ66L) were subjected to anti-FLAG immunoprecipitation, followed by immunoblotting for HA-tagged RagA proteins. (F) Immunoprecipitation analysis of the interactions between Gal8 and RagC GTPase and its mutants.”

Row | Compound | ULK1 pS317 (activating AMPK phosphosite) ([1]; 100 μM GPN) | ULK1 pS757 (mTOR-dependent inactivating phosphosite) ([1]; 100 μM GPN) | phosphorylation of S79 of acetyl-CoA carboxylase (ACC) ([1]; 100 μM GPN) | AMPK activation (AMPKα T172 phosphorylation) ([1]; HEK293A, 100 μM GPN in full medium) | LC3-II levels and LC3 puncta [2] | association between Gal8 and LAMTOR2/p14 [3] | association between Gal8 and RagA [3] | levels of Raptor and mTOR in complexes with Gal8 [3] | co-IP with mTOR and RagA [4]
1 | NCC(=O)N[C@@H](Cc1ccccc1)C(=O)Nc1ccc2ccccc2c1 [GPN, glycyl-L-phenylalanine 2-naphththylamide] (HELM PEPTIDE1{G.F.[c1ccc2cc(N[*:1])ccc2c1]}$$$$V2.0) | increase | decreased | elevated phosphorylation | activated | increased robustly | increased association | increased | reduced levels | –
2 | Gal8: protein of the galectin family encoded by the gene LGALS8; beta-galactoside-binding lectin | – | – | – | – | – | – | – | – | found in co-IPs
